Source: patent US20210171948A1, “COMPOSITIONS AND METHODS FOR TARGETING GLYPICAN-2 IN THE TREATMENT OF CANCER” (Shepherd Therapeutics, Inc., priority 2019, published 2021)
Strand notation (5' to 3'): a small letter for the sugar, then the base; units joined by * are phosphorothioate-linked, units joined directly phosphodiester-linked; [ ] holds rarer units or linkages, { } end groups; capitals alone tell only the bases. d = 2'-deoxy (DNA); r = 2'-OH (RNA)

What was measured:
GPC2 mRNA [1] = assay: GPC2 mRNA knockdown in neuroblastoma cell lines (Example 4); assay type: cell-based, human
Procedure: GPC2 mRNA knockdown was assessed in multiple neuroblastoma cell lines. Cells were transfected with either a scrambled control siRNA, with GPC2 siRNA sequences 3 or 5 from Table 7, or with siRNA sequences generated by Dharmacon (sequences 12-15 from Table 7) using the RNAiMAX Lipofectamine kit (Invitrogen, Carlsbad, Calif.) as previously described. Following a 96 hour incubation period, total RNA samples were collected to compare knockdown efficiency and viability was measured in parallel plated cells.
The extent of GPC2 mRNA reduction was assessed with additional GPC2 siRNA sequences in the CHP212 neuroblastoma cell line. Cells were transfected with either a scrambled control siRNA or with GPC2 siRNA sequences 3 or 5, or with siRNA sequences 6-11 (Sigma) using the RNAiMAX Lipofectamine kit (Invitrogen, Carlsbad, Calif.) as previously described. Following a 96 hour incubation period, total RNA samples were collected and viability was measured in parallel plated cells.
The extent of GPC2 mRNA reduction (knockdown) and corresponding protein level expression changes were assessed in three neuroblastoma cell lines following siRNA knockdown of GPC2. The CHP212 neuroblastoma cell line (FIG. 5A and FIG. 5D), the SH-SY5Y neuroblastoma cell line (FIG. 5B and FIG. 5E) and the CHLA90 neuroblastoma cell line (FIG. 5C and FIG. 5F) were transfected with GPC2 siRNA sequences 5 and 7 from Table 7 and a scrambled control siRNA using the RNAiMAX Lipofectamine kit (Invitrogen, Carlsbad, Calif.) as previously described. Following a 24, 48, or 72 hour incubation period, cells were washed and total RNA was isolated for measuring GPC2 mRNA expression. For protein analysis, cells were fixed, immunostained using an antibody against GPC2 protein, protein expression was measured via flow cytometry. As shown, GPC2 mRNA knockdown was observed beginning at the 24 hr time point and lasted for at least 72 hours. GPC2 protein expression started to decrease at the 48 hr time point.

GPC2 mRNA [2] = assay: GPC2 mRNA knockdown in neuroblastoma cell lines, representative data from a separate experiment (Tables 10-14); assay type: cell-based, human; parameters: concentration or dose not given beside the values
CHLA-90 cells [3] = assay: Cyclophosphamide IC50 in siRNA-transfected cells, Cell Titer Glo 2.0 viability (Example 7); assay type: cell-based
Procedure: (§1) GPC2 mRNA expression was reduced with the indicated siRNAs and changes in cell viability were assessed in multiple neuroblastoma cell lines. Cells were transfected with either a control siRNA or with GPC2 siRNA sequences 3, 5 or 7 from Table 7 using the RNAiMAX Lipofectamine kit (Invitrogen, Carlsbad, Calif.) as previously described in 96 wells for viability assays. Cyclophosphamide was added at increasing concentrations (0-20 uM) to transfected cells at 24 hr post transfection. Following a 72 hour incubation period, viability measurements were made using Cell Titer Glo 2.0.

CHP212 cells [4] = assay: as above; assay type: cell-based
Procedure: as §1

SH-SY5Y cells [5] = assay: as above; assay type: cell-based
Procedure: as §1

SK-N-BE2 cells [6] = assay: as above; assay type: cell-based
Procedure: as §1

CHLA-90 cells [7] = assay: Doxorubicin IC50 in siRNA-transfected cells, Cell Titer Glo viability (Example 8); assay type: cell-based
Procedure: as §1, with “reduced” for “reduced with the indicated siRNAs”, “with GPC-2” for “with GPC2”, “assays. Doxorubicin” for “assays. Cyclophosphamide”, “concentrations (0-5” for “concentrations (0-20”, “24 hours” for “24 hr”, “Titer Glo.” for “Titer Glo 2.0.”

CHP212 cells [8] = assay: as above; assay type: cell-based
Procedure: as §1, with “reduced” for “reduced with the indicated siRNAs”, “with GPC-2” for “with GPC2”, “assays. Doxorubicin” for “assays. Cyclophosphamide”, “concentrations (0-5” for “concentrations (0-20”, “24 hours” for “24 hr”, “Titer Glo.” for “Titer Glo 2.0.”

SH-SY5Y cells [9] = assay: as above; assay type: cell-based
Procedure: as §1, with “reduced” for “reduced with the indicated siRNAs”, “with GPC-2” for “with GPC2”, “assays. Doxorubicin” for “assays. Cyclophosphamide”, “concentrations (0-5” for “concentrations (0-20”, “24 hours” for “24 hr”, “Titer Glo.” for “Titer Glo 2.0.”

SK-N-BE2 cells [10] = assay: as above; assay type: cell-based
Procedure: as §1, with “reduced” for “reduced with the indicated siRNAs”, “with GPC-2” for “with GPC2”, “assays. Doxorubicin” for “assays. Cyclophosphamide”, “concentrations (0-5” for “concentrations (0-20”, “24 hours” for “24 hr”, “Titer Glo.” for “Titer Glo 2.0.”

CHLA-90 cells [11] = assay: Etoposide IC50 in siRNA-transfected cells, Cell Titer Glo 2.0 viability (Example 9); assay type: cell-based
Procedure: as §1, with “reduced” for “reduced with the indicated siRNAs”, “Etoposide” for “Cyclophosphamide”, “(0-15” for “(0-20”, “hours” for “hr”, “measurement” for “measurements”

CHP212 cells [12] = assay: as above; assay type: cell-based; conditions: CHP212 cells transfected with the labelled siRNA; etoposide added 24 hours post transfection, 72 hour incubation
Procedure: as §1, with “reduced” for “reduced with the indicated siRNAs”, “Etoposide” for “Cyclophosphamide”, “(0-15” for “(0-20”, “hours” for “hr”, “measurement” for “measurements”

SH-SY5Y cells [13] = assay: as above; assay type: cell-based
Procedure: as §1, with “reduced” for “reduced with the indicated siRNAs”, “Etoposide” for “Cyclophosphamide”, “(0-15” for “(0-20”, “hours” for “hr”, “measurement” for “measurements”

SK-N-BE2 cells [14] = assay: as above; assay type: cell-based
Procedure: as §1, with “reduced” for “reduced with the indicated siRNAs”, “Etoposide” for “Cyclophosphamide”, “(0-15” for “(0-20”, “hours” for “hr”, “measurement” for “measurements”

Substance: GPC2 siRNA 7: siRNA duplex: sense CUCCUUUCUGGUUCACACA[dT][dT] (SEQ ID NO: 215), anti-sense UGUGUGAACCAGAAAGGAG[dT][dT] (SEQ ID NO: 216) (sense rCrUrCrCrUrUrUrCrUrGrGrUrUrCrArCrArCrAdTdT; antisense rUrGrUrGrUrGrArArCrCrArGrArArArGrGrArGdTdT; listed as Homo sapiens)
- Time for which reduced GPC2 mRNA expression was sustained (GPC2 mRNA [1]; CHLA90 neuroblastoma cells (FIG. 5C)): 72 h
- Time point at which GPC2 mRNA knockdown was first observed (GPC2 mRNA [1]; CHP212, SH-SY5Y and CHLA90 neuroblastoma cell lines): 24 h
- Degree of GPC2 knockdown among sequences 3, 5, 6-11 (GPC2 mRNA [1]; CHP212 neuroblastoma cell line, 96 hour incubation (FIG. 4A)): greater
- Time for which reduced GPC2 mRNA expression was sustained (GPC2 mRNA [1]; CHP212 neuroblastoma cells (FIG. 5A)): 72 h
- Time for which reduced GPC2 mRNA expression was sustained (GPC2 mRNA [1]; SH-SY5Y neuroblastoma cells (FIG. 5B)): 72 h
- % KD; percent GPC2 mRNA reduction (knockdown) (GPC2 mRNA [2]; CHLA-90, compared to scrambled siRNA control): 65%
- % KD; percent GPC2 mRNA reduction (knockdown) (GPC2 mRNA [2]; CHLA-136, compared to scrambled siRNA control): 30%
- % KD; percent GPC2 mRNA reduction (knockdown) (GPC2 mRNA [2]; CHLA-172, compared to scrambled siRNA control): 20%
- % KD; percent GPC2 mRNA reduction (knockdown) (GPC2 mRNA [2]; CHP212, compared to scrambled siRNA control): 70%
- % KD; percent GPC2 mRNA reduction (knockdown) (GPC2 mRNA [2]; KELLY, compared to scrambled siRNA control): 73%
- % KD; percent GPC2 mRNA reduction (knockdown) (GPC2 mRNA [2]; SH-SY5Y, compared to scrambled siRNA control): 70%
- % KD; percent GPC2 mRNA reduction (knockdown) (GPC2 mRNA [2]; SK-N-BE2, compared to scrambled siRNA control): 69%
- % KD; percent GPC2 mRNA reduction (knockdown) (GPC2 mRNA [2]; SKNAS, compared to scrambled siRNA control): 64%
- Data Summary: effect of knockdown on sensitivity to cyclophosphamide (CHLA-90 cells [3]; CHLA-90): increases sensitivity to
- IC50 (CHLA-90 cells [3]; CHLA-90 cells transfected with the labelled siRNA, cyclophosphamide added 24 hr post transfection, 72 hour incubation): 10 µM
- Data Summary: effect of knockdown on sensitivity to cyclophosphamide (CHP212 cells [4]; CHP212): increases sensitivity to
- IC50 (CHP212 cells [4]; CHP212 cells transfected with the labelled siRNA, cyclophosphamide added 24 hr post transfection, 72 hour incubation): 1200 nM
- Data Summary: effect of knockdown on sensitivity to cyclophosphamide (SH-SY5Y cells [5]; SH-SY5Y): increases sensitivity to
- IC50 (SH-SY5Y cells [5]; SH-SY5Y cells transfected with the labelled siRNA, cyclophosphamide added 24 hr post transfection, 72 hour incubation): 940 nM
- Data Summary: effect of knockdown on sensitivity to cyclophosphamide (SK-N-BE2 cells [6]; SK-N-BE2): increases sensitivity to
- IC50 (SK-N-BE2 cells [6]; SK-N-BE2 cells transfected with the labelled siRNA, cyclophosphamide added 24 hr post transfection, 72 hour incubation): 410 nM
- Data Summary: effect of knockdown on sensitivity to doxorubicin (CHLA-90 cells [7]; CHLA-90): increases sensitivity to
- IC50 (CHLA-90 cells [7]; CHLA-90 cells transfected with the labelled siRNA, doxorubicin added 24 hours post transfection, 72 hour incubation): 130 nM
- Data Summary: effect of knockdown on sensitivity to doxorubicin (CHP212 cells [8]; CHP212): does not increase sensitivity
- IC50 (CHP212 cells [8]; CHP212 cells transfected with the labelled siRNA, doxorubicin added 24 hours post transfection, 72 hour incubation): 20 nM
- Data Summary: effect of knockdown on sensitivity to doxorubicin (SH-SY5Y cells [9]; SH-SY5Y): KD with sequence 7 increases
- IC50 (SH-SY5Y cells [9]; SH-SY5Y cells transfected with the labelled siRNA, doxorubicin added 24 hours post transfection, 72 hour incubation): 30 nM
- Data Summary: effect of knockdown on sensitivity to doxorubicin (SK-N-BE2 cells [10]; SK-N-BE2): increases sensitivity to
- IC50 (SK-N-BE2 cells [10]; SK-N-BE2 cells transfected with the labelled siRNA, doxorubicin added 24 hours post transfection, 72 hour incubation): 200 nM
- Data Summary: effect of knockdown on sensitivity to etoposide (CHLA-90 cells [11]; CHLA-90): increases sensitivity to etoposide
- IC50 (CHLA-90 cells [11]; CHLA-90 cells transfected with the labelled siRNA, etoposide added 24 hours post transfection, 72 hour incubation): 130 nM
- IC50 (CHP212 cells [12]): 20 nM
- Data Summary: effect of knockdown on sensitivity to etoposide (SH-SY5Y cells [13]; SH-SY5Y): 7 increases sensitivity to etoposide
- IC50 (SH-SY5Y cells [13]; SH-SY5Y cells transfected with the labelled siRNA, etoposide added 24 hours post transfection, 72 hour incubation): 30 nM
- Data Summary: effect of knockdown on sensitivity to etoposide (SK-N-BE2 cells [14]; SK-N-BE2): 7 increases sensitivity to etoposide
- IC50 (SK-N-BE2 cells [14]; SK-N-BE2 cells transfected with the labelled siRNA, etoposide added 24 hours post transfection, 72 hour incubation): 200 nM
